From US20140051679A1, “KINASE INHIBITORS AND METHOD OF TREATING CANCER WITH SAME” (UNIVERISTY HEALTH NETWORKS, priority 2011, published 2014)

Legend:
[1] = test system: HCT116 colon cancer cells; assay: Cell growth inhibition, Sulforhodamine B assay, HCT116; type: cell-based; details: Homo sapiens, HCT-116, 120 h, 5 days culture, SRB assay, read-out: Cell Line GI50 Range HCT116
Aurora B = molecular target: T1, Aurora B (Homo sapiens, UniProt Q96GD4); assay: Aurora B inhibition assay (Z-Lyte); type: biochemical; details: 28 nM Aurora B, 128 μM ATP; read-out: IC50 Ranges Aurora B
T1 construct: purchased Invitrogen PV3970
T1 sequence (Q96GD4 whole entry): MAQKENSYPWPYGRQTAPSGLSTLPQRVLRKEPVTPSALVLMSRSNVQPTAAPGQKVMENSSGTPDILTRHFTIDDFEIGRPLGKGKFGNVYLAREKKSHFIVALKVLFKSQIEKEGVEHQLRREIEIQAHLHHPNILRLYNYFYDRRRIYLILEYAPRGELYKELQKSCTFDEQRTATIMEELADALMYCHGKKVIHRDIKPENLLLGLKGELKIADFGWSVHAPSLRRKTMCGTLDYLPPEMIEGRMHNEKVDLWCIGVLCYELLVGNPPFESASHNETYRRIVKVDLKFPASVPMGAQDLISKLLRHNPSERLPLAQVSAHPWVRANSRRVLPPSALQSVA
Description: Aurora B inhibition was determined using the Z-Lyte assay kit from Invitrogen. The assay was performed using the recommended manufacturer's instructions with 128 μM ATP and 28 nM Aurora B (Invitrogen cat #PV3970). The % inhibition values were determined according to the manufacturer's directions and IC50 values were obtained using a non-linear 4 point logistic curve fit (XLfit4, IDBS)

[2] = test system: OVCAR-3 ovarian cancer cells; assay: Cell growth inhibition, Sulforhodamine B assay, OVCAR-3; type: cell-based; details: Homo sapiens, 120 h, 5 days culture, SRB assay, read-out: Cell Line GI50 Range OVCAR-3
HT29 colon cancer cells = assay: Cell growth inhibition, Sulforhodamine B assay, HT29; type: cell-based; details: Homo sapiens, HT-29, 120 h, 5 days culture, SRB assay, read-out: Cell Line GI50 Range HT29
[3] = test system: MDA-MB-468 breast cancer cells; assay: Cell growth inhibition, Sulforhodamine B assay, MDA-MB-468; type: cell-based; details: Homo sapiens, 120 h, 5 days culture, SRB assay, read-out: Cell Line GI50 Range MDA-MB-468
human TTK = molecular target: T2, human TTK (Homo sapiens, UniProt P33981); assay: TTK inhibition assay (indirect ELISA); type: biochemical; details: GST-TTK 0.68 nM, 16 μM ATP; read-out: IC50 Ranges TTK
T2 construct: amino terminal GST fusion of full length human TTK; purchased Invitrogen
T2 sequence (P33981 1-857): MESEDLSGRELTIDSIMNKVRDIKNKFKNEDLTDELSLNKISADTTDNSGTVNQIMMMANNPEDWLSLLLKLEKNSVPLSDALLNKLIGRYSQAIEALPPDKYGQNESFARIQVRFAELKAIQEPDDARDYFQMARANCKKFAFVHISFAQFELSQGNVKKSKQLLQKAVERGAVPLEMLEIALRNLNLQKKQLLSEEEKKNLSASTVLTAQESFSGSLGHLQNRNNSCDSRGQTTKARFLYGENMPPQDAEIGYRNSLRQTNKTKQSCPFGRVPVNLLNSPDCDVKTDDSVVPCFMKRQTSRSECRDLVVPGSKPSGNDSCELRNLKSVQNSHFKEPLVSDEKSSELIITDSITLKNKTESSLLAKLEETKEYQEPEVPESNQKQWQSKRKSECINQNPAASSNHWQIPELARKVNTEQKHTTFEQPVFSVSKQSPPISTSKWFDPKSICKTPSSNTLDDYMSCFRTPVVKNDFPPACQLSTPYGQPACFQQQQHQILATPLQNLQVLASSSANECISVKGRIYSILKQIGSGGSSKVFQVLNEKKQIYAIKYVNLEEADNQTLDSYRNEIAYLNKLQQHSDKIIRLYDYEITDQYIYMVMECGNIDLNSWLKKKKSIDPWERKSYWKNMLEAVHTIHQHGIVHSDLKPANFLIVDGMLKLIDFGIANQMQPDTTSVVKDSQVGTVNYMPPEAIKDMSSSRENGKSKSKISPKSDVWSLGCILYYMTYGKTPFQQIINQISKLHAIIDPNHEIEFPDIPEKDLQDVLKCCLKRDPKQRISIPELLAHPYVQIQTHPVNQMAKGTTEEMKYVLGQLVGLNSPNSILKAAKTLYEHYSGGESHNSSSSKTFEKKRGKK

human PLK4 = molecular target: T3, human PLK4 (Homo sapiens, UniProt O00444); assay: PLK4 inhibition assay (indirect ELISA); type: biochemical; details: GST-PLK4 4 nM, 15 μM ATP; read-out: IC50 Ranges PLK4
T3 construct: amino terminal GST fusion of residues 1-391 of human PLK4; made in house; host or cells: E. coli
T3 sequence (O00444 1-391): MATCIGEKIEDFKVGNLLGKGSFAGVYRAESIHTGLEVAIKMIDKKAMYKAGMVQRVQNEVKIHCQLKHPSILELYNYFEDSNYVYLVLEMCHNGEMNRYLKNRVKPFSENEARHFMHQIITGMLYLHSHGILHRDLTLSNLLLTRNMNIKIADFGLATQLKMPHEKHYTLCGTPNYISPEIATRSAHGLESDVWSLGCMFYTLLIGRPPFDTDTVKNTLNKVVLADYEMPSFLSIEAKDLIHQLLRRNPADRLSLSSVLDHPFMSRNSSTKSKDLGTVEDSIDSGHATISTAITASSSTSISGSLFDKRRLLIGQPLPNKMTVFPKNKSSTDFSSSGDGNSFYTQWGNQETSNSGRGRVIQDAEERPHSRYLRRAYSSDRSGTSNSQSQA
How it was run: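 Compounds were tested either at a single 10 μM dose or across 10-point titrations (typically 0.5 to 0.001 μM), preincubated 15 min with 4 nM GST-PLK4 (human 1-391, dephosphorylated) before 15 μM ATP was added. MBP substrate phosphorylation over 30 min, pH 7.5 HEPES/MgCl2 buffer, read by HRP/TMB ELISA (450 nm). % inhibition vs. high-activity control; IC50 by logistic fit.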

[4] = test system: Ovarian TICs, 2393A ovarian; assay: Ovarian tumor-initiating cell growth inhibition (Alamar Blue); type: cell-based; details: 144 h, 6 days, read-out: GI50 range 2393A ovarian
[5] = test system: Colon tumor initiating cells (TICs), 12 colon; assay: Colon tumor-initiating cell growth inhibition (Alamar Blue); type: cell-based; details: 216 h, 9 days, read-out: GI50 range 12 colon
[6] = test system: MDA-MB-231 breast cancer cells; assay: Cell growth inhibition, Sulforhodamine B assay, MDA-MB-231; type: cell-based; details: Homo sapiens, 120 h, 5 days culture, SRB assay, read-out: Cell Line GI50 Range MDA-MB-231
[7] = test system: PA-1 ovarian cancer cells; assay: Cell growth inhibition, Sulforhodamine B assay, PA-1; type: cell-based; details: 120 h, 5 days culture, SRB assay, read-out: Cell Line GI50 Range PA-1

GI50 [1] [µM] | IC50 (Aurora B) [µM] | GI50 [2] [µM] | GI50 (HT29 colon cancer cells) [µM] | GI50 [3] [µM] | IC50 (human TTK) [µM] | IC50 (human PLK4) [µM] | GI50 [4] [µM] | GI50 [5] [µM] | GI50 [6] [µM] | GI50 [7] [µM] | SMILES
≤ 5 | ≤ 5 | 5 to 20 | ≤ 5 | ≤ 5 | ≤ 5 | ≤ 5 | ≤ 5 | ≤ 5 | 5 to 20 | – | O=C(Nc1ccc2[nH]nc(-c3ccc(OC4CCOCC4)cc3)c2c1)C(c1ccsc1)N1CCCC1 (centres unmarked) [Example A29, 2-(pyrrolidin-1-yl)-N-(3-(4-((tetrahydro-2H-pyran-4-yl)oxy)phenyl)-1H-indazol-5-yl)-2-(thiophen-3-yl)acetamide]
≤ 5 | ≤ 5 | ≤ 5 | ≤ 5 | ≤ 5 | ≤ 5 | ≤ 5 | ≤ 5 | ≤ 5 | ≤ 5 | – | CN1CCC(Oc2ccc(-c3n[nH]c4ccc(C(=O)NC(c5ccsc5)C5CC5)cc34)cc2)CC1 (centres unmarked) [Example A33, N-(cyclopropyl(thiophen-3-yl)methyl)-3-(4-((1-methylpiperidin-4-yl)oxy)phenyl)-1H-indazole-5-carboxamide]
≤ 5 | ≤ 5 | ≤ 5 | ≤ 5 | ≤ 5 | ≤ 5 | ≤ 5 | ≤ 5 | ≤ 5 | ≤ 5 | – | O=C(NC(c1ccsc1)C1CC1)c1ccc2[nH]nc(-c3ccc(N4CCOCC4)cc3)c2c1 (centres unmarked) [Example A35, N-(cyclopropyl(thiophen-3-yl)methyl)-3-(4-morpholinophenyl)-1H-indazole-5-carboxamide]
≤ 5 | ≤ 5 | ≤ 5 | ≤ 5 | ≤ 5 | ≤ 5 | ≤ 5 | ≤ 5 | ≤ 5 | ≤ 5 | – | CCc1cccc(CC)c1NC(=O)Nc1ccc2[nH]nc(-c3ccc(OC4CCN(C)CC4)cc3)c2c1 [Example A46]
≤ 5 | ≤ 5 | – | ≤ 5 | ≤ 5 | ≤ 5 | ≤ 5 | ≤ 5 | ≤ 5 | – | ≤ 5 | CC1(O)CCN(c2ccc(-c3n[nH]c4ccc(NC(=O)C(c5ccsc5)N5CCCC5)cc34)cc2)CC1 (centres unmarked) [Example A89, N-(3-(4-(4-hydroxy-4-methylpiperidin-1-yl)phenyl)-1H-indazol-5-yl)-2-(pyrrolidin-1-yl)-2-(thiophen-3-yl)acetamide]
≤ 5 | ≤ 5 | – | ≤ 5 | ≤ 5 | ≤ 5 | ≤ 5 | ≤ 5 | ≤ 5 | – | ≤ 5 | O=CN1CCC(Oc2ccc(-c3n[nH]c4ccc(NC(=O)C(c5ccsc5)N5CCCC5)cc34)cc2)CC1 (centres unmarked) [Example A118]
≤ 5 | ≤ 5 | – | ≤ 5 | ≤ 5 | ≤ 5 | ≤ 5 | ≤ 5 | ≤ 5 | – | ≤ 5 | O=CN1CCC(Oc2ccc(-c3n[nH]c4ccc(C(=O)NC(c5ccccn5)C5CC5)cc34)cc2)CC1 (centres unmarked) [Example A160, N-(cyclopropyl(pyridin-2-yl)methyl)-3-(4-((1-formylpiperidin-4-yl)oxy)phenyl)-1H-indazole-5-carboxamide]
≤ 5 | ≤ 5 | – | ≤ 5 | ≤ 5 | ≤ 5 | ≤ 5 | ≤ 5 | ≤ 5 | – | ≤ 5 | CN1CCC(Oc2ccc(-c3n[nH]c4ccc(C(=O)N[C@H](c5sccc5Cl)C5CC5)cc34)cc2)CC1 [Example A167, (S)—N-((3-chlorothiophen-2-yl)(cyclopropyl)methyl)-3-(4-((1-methylpiperidin-4-yl)oxy)phenyl)-1H-indazole-5-carboxamide]
≤ 5 | ≤ 5 | – | – | ≤ 5 | ≤ 5 | ≤ 5 | ≤ 5 | ≤ 5 | – | ≤ 5 | CC(C)(O)C1CCN(c2ccc(-c3n[nH]c4ccc(C(=O)NC(c5ccccn5)C5CC5)cc34)cc2)CC1 (centres unmarked) [Example A180, N-(cyclopropyl(pyridin-2-yl)methyl)-3-(4-(4-(2-hydroxypropan-2-yl)piperidin-1-yl)phenyl)-1H-indazole-5-carboxamide]
≤ 5 | ≤ 5 | – | – | ≤ 5 | ≤ 5 | ≤ 5 | ≤ 5 | ≤ 5 | – | ≤ 5 | O=CN1CCC(Oc2ccc(-c3n[nH]c4ccc(C(=O)NC(c5ccccc5F)C5CC5)cc34)cc2)CC1 (centres unmarked) [Example A182, N-(cyclopropyl(2-fluorophenyl)methyl)-3-(4-((1-formylpiperidin-4-yl)oxy)phenyl)-1H-indazole-5-carboxamide]
≤ 5 | ≤ 5 | – | – | ≤ 5 | ≤ 5 | ≤ 5 | ≤ 5 | ≤ 5 | – | ≤ 5 | O=C(Nc1ccc2[nH]nc(-c3ccc(OC4CCN(C5COC5)CC4)cc3)c2c1)C(c1ccccc1)C1CC1 (centres unmarked) [Example A185, 2-cyclopropyl-N-(3-(4-((1-(oxetan-3-yl)piperidin-4-yl)oxy)phenyl)-1H-indazol-5-yl)-2-phenylacetamide]
≤ 5 | ≤ 5 | – | – | ≤ 5 | ≤ 5 | ≤ 5 | ≤ 5 | ≤ 5 | – | ≤ 5 | O=CN1CCC(Oc2ccc(-c3n[nH]c4ccc(C(=O)NC(c5ccsc5)C5CC5)cc34)cc2)CC1 (centres unmarked) [Example A186, N-(cyclopropyl(thiophen-3-methyl-3-yl)methyl)-3-(4-((1-formylpiperidin-4-yl)oxy)phen)-1H-indazole-5-carboxamide]
≤ 5 | ≤ 5 | – | – | ≤ 5 | ≤ 5 | ≤ 5 | ≤ 5 | ≤ 5 | – | ≤ 5 | O=C(NC(c1ccccc1)C1CC1)c1ccc2[nH]nc(-c3ccc(OC4CN(C5COC5)C4)cc3)c2c1 (centres unmarked) [Example A190, N-(cyclopropyl(phenyl)methyl)-3-(4-((1-(oxetan-3-yl)azetidin-3-yl)oxy)phenyl)-1H-indazole-5-carboxamide]
